According to US10577340B1, “Beraprost-314d crystals and methods for preparation thereof” (CHIROGATE INTERNATIONAL INC., priority 2018, dated 2020):
“Also recorded” adds a separate entry of the source.

Columns and labels:
[1] = Crystalline form transformation from Form III to Form II at room temperature; format: physicochemical; details: FIG. 5
Procedure: (§1) X-ray Powder Diffraction (XRPD) Analysis: The XRPD patterns were collected on a Bruker D2 PHASER diffractometer with fixed divergence slits and ID LYNXEYE detector. The samples (ca. 100 mg) were flatly placed on a sample holder. The prepared samples were analyzed over a […] from 5° to 50° with step size of 0.02 degrees and step time of 1 second using CuKα radiation at a power of 10 mA and 30 kV. The CuKβ radiation was removed by a divergent beam nickel filter.
The Beraprost-314d crystal Form III (0.5 g, from Example 5) was placed in a glass vial, and isothermal at room temperature for 1 day.

[2] = Storage stability of the crystalline form (crystalline form change, degradation products); format: physicochemical; details: six months
Procedure: as §1

Row | time until conversion to Beraprost-314d crystal Form II ([1]; keeping at room temperature) [days] | Substance | crystalline form transformation ([1]; glass vial, isothermal at room temperature for 1 day) | stability during storage (other crystalline forms, degraded products) ([2]; normal storage temperatures (about −20° C.)) | stability during storage (other crystalline forms) ([2]; room temperature (about 20 to 25° C.))
1 | ≤ 1 | Beraprost-314d [Beraprost-314d crystal Form III] | completely converted to Beraprost-314d crystal Form II | – | –
2 | – | Beraprost-314d [Beraprost-314d crystal Form II] | – | no other crystalline forms or degraded products of impurities; also recorded: good stability with no other crystalline forms | good stability with no other crystalline forms
